According to patent US20170258774A1 (priority 2016, published 2017):

Assays:
[1] = molecular target: BChE (Homo sapiens, UniProt P06276); format: biochemical
[2] = molecular target: BChE (Rattus norvegicus, UniProt Q9JKC1); format: biochemical
[3] = molecular target: BChE (Cavia porcellus, UniProt H0V4F8); format: biochemical, guinea pig
BChE (Cavia porcellus, UniProt H0V4F8), sequence (H0V4F8 29-602 limits assumed): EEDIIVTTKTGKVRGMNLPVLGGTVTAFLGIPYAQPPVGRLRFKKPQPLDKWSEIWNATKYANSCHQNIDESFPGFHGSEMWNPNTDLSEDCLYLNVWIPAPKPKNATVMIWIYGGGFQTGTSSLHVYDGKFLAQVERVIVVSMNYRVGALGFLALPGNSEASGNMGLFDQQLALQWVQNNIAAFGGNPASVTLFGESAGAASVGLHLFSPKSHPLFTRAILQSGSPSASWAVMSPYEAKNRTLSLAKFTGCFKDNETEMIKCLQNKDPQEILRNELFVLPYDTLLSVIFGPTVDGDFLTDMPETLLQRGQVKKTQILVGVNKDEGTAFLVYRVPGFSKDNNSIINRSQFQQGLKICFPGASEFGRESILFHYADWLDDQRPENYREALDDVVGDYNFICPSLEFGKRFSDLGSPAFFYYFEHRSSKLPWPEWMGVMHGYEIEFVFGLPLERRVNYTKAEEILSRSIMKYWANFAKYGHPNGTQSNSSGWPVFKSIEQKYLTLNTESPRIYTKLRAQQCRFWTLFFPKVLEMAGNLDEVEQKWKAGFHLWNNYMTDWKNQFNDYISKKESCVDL

BChE (Rattus norvegicus, UniProt Q9JKC1), sequence (Q9JKC1 24-597 limits assumed): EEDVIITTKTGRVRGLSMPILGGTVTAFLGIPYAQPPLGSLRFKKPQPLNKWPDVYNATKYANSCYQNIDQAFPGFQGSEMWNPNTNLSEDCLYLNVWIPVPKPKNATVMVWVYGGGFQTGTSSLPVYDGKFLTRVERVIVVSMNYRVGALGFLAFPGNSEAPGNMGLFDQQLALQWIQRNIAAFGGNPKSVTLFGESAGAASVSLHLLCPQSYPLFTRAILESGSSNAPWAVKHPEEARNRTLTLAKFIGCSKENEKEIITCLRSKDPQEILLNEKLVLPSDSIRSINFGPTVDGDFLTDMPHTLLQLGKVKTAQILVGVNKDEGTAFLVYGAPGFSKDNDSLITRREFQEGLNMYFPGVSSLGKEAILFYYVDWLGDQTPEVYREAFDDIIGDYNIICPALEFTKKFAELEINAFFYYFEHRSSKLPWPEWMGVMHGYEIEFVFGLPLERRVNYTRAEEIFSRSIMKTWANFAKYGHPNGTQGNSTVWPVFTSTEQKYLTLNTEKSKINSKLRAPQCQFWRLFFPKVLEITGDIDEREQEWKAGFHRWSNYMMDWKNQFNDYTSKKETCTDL
BChE (Homo sapiens, UniProt P06276), sequence (P06276 29-602): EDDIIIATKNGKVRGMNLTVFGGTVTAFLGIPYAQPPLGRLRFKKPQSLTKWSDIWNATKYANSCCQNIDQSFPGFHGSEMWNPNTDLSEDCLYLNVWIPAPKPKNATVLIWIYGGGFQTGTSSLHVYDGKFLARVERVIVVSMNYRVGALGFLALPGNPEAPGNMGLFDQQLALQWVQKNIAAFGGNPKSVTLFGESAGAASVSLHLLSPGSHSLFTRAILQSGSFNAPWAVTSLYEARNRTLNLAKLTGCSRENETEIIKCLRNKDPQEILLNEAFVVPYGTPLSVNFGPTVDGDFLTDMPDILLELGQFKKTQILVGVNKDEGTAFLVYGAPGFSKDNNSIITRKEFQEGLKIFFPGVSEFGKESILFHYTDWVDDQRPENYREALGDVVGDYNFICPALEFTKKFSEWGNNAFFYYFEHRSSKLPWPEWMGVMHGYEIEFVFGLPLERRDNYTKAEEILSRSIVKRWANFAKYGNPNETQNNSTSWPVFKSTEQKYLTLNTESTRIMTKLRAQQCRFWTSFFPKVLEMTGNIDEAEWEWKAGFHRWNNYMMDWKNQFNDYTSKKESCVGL

| Compound | OP Inhibitory Concentrations of at least 80% BChE [1] [µM] | OP Inhibitory Concentrations of at least 80% BChE [2] [µM] | OP Inhibitory Concentrations of at least 80% BChE [3] [µM] | BChE inhibitory potency relative to phorate oxon [2] |
| --- | --- | --- | --- | --- |
| CCOP(=O)(OCC)SCSCC [PHO, phorate oxon] | 0.178 | 10.0 | 5.60 |  |
| CCOP(=O)(OCC)SC[S+]([O-])CC (centres unmarked) [PHOsox, phorate oxon sulfoxide] |  | 1.00 |  | ten-fold more potent |
| CCOP(=O)(OCC)Oc1ccc([N+](=O)[O-])cc1 [PXN, phosphoric acid diethyl 4-nitrophenyl ester] | 0.032 | 1.78 | 0.178 |  |
